Measurements taken from patent publication US20060069132A1, “Azolecarboxamide herbicides” (priority 2004, published 2006).

What was measured:
rice = assay: Test B flooded paddy test; type: in vivo, Oryza sativa; settings: 125 g ai/ha, scale 0 to 100 (0 no effect, 100 complete control)
Method in brief: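 After treating 2-leaf paddy plants or 2–18 cm postemergence plants (1 to 4 leaves) with formulated chemical, researchers kept them in a greenhouse for 13–15 days. Effects were judged visually versus controls: 0 indicates none, 100 total control.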

blackgrass = assay: Test B postemergence herbicide test; type: in vivo, Alopecurus myosuroides
Method in brief: (§1)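 Paddy species grown to the 2-leaf stage under flooding; blackgrass sprayed postemergence at 2–18 cm (1- to 4-leaf stage). Plants kept in a greenhouse for 13 to 15 days, then visually rated against controls on 0 (no effect) to 100 (complete control).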

velvetleaf = assay: Test B pre-/postemergence herbicide test; type: in vivo, Abutilon theophrasti
Method in brief: (§2)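 Flooded paddy rice and barnyardgrass were treated at the 2-leaf stage; upland plantings received compound either on sown seed or on 1- to 4-leaf seedlings. All were kept 13–15 days in a greenhouse and scored visually, 0–100, relative to untreated plants.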

giant foxtail = assay: Test B pre-/postemergence herbicide test; type: in vivo, Setaria faberi
Method in brief: as §2

pigweed = assay: Test B pre-/postemergence herbicide test; type: in vivo, Amaranthus retroflexus
Method in brief: as §2

lambsquarters = assay: Test B pre-/postemergence herbicide test; type: in vivo, Chenopodium album
Method in brief: as §2

wild oat = assay: Test B postemergence herbicide test; type: in vivo, Avena fatua
Method in brief: (§3)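 Greenhouse test; postemergence application to plants at 1–4 leaves (2–18 cm); paddy species at 2 leaves; evaluated visually vs controls at 13–15 days; scale 0–100 (100 = complete control).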

cocklebur = assay: Test B pre-/postemergence herbicide test; type: in vivo, Xanthium strumarium
Method in brief: (§4)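 Test chemicals in a non-phytotoxic solvent mixture with surfactant were applied preemergence to seeded species and postemergence to plants 2-18 cm tall (1- to 4-leaf stage); rice and barnyardgrass were also tested in a flooded paddy at the 2-leaf stage. Visual rating versus controls after 13-15 days in greenhouse, scale 0 (no effect) to 100 (complete control).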

barnyardgrass [1] = assay: Test B flooded paddy test; type: in vivo, Echinochloa crus-galli; settings: 125 g ai/ha, scale 0 to 100 (0 no effect, 100 complete control)
Method in brief: as §1

barnyardgrass [2] = assay: Test B pre-/postemergence herbicide test; type: in vivo, Echinochloa crus-galli; settings: Postemergence, scale 0 (no effect) to 100 (complete control)
Method in brief: as §4

wheat = assay: Test B postemergence herbicide test; type: in vivo, Triticum aestivum; set-up: key to Wheat plant response rating: 0 = no effect, 100 = complete control
Method in brief: as §3

morningglory = assay: Test B pre-/postemergence herbicide test; type: in vivo, Ipomoea coccinea
Method in brief: as §4

corn = assay: Test B pre-/postemergence herbicide test; type: in vivo, Zea mays
Method in brief: as §2

large crabgrass = assay: Test B pre-/postemergence herbicide test; type: in vivo, Digitaria sanguinalis
Method in brief: as §2

Surinam grass = assay: Test B pre-/postemergence herbicide test; type: in vivo, Urochloa decumbens
Method in brief: as §2

ducksalad = assay: Test B flooded paddy test; type: in vivo, Heteranthera limosa; settings: 125 g ai/ha, scale 0 to 100 (0 no effect, 100 complete control)
Method in brief: as §1

[3] = system: small flower umbrella sedge; assay: Test B flooded paddy test; type: in vivo, Cyperus difformis; settings: 125 g ai/ha, scale 0 to 100 (0 no effect, 100 complete control)
Method in brief: as §1

[4] = Postemergence, 500 g ai/ha, scale 0 (no effect) to 100 (complete control)
[5] = postemergence, 125 g ai/ha, scale 0 to 100
[6] = 500 g ai/ha, scale 0 to 100, 0 no effect, 100 complete control, preemergence

Compound: CCNC(=O)c1cccc(NC(=O)c2nn(C(C)(C)C)nc2Br)c1 [Compound 434]
- Rice plant response rating (rice): 70
- Blackgrass plant response rating (blackgrass; [4]): 50
- Blackgrass plant response rating (blackgrass; [5]): 30
- Velvetleaf plant response rating (velvetleaf; [4]): 20
- Velvetleaf plant response rating (velvetleaf; [5]): 10
- Foxtail, Giant plant response rating (giant foxtail; [4]): 30
- Foxtail, Giant plant response rating (giant foxtail; [5]): 20
- Pigweed plant response rating (pigweed; [4]): 60
- Pigweed plant response rating (pigweed; [5]): 40
- Lambsquarters plant response rating (lambsquarters; [4]): 70
- Lambsquarters plant response rating (lambsquarters; [5]): 40
- Oat, Wild plant response rating (wild oat; [4]): 60
- Oat, Wild plant response rating (wild oat; [5]): 50
- Cocklebur plant response rating (cocklebur; [4]): 70
- Cocklebur plant response rating (cocklebur; [5]): 50
- Barnyardgrass plant response rating (barnyardgrass [1]): 60
- Barnyardgrass plant response rating (barnyardgrass [2]; 125 g ai/ha): 10
- Barnyardgrass plant response rating (barnyardgrass [2]; 500 g ai/ha): 30
- Wheat plant response rating (wheat; [6]): 90
- Wheat plant response rating (wheat; [4]): 50
- Wheat plant response rating (wheat; [5]): 40
- Morningglory plant response rating (morningglory; [4]): 70
- Morningglory plant response rating (morningglory; [5]): 60
- Corn plant response rating (corn; [4]): 40
- Corn plant response rating (corn; [5]): 40
- Crabgrass, Large plant response rating (large crabgrass; [4]): 30
- Crabgrass, Large plant response rating (large crabgrass; [5]): 20
- Surinam Grass plant response rating (Surinam grass; [4]): 20
- Surinam Grass plant response rating (Surinam grass; [5]): 10
- Ducksalad plant response rating (ducksalad): 70
- Sedge, Umbrella plant response rating [3]: 90

Compound: CC(C)(C)n1nc(Br)c(C(=O)Nc2cccc(C(=O)NC3CC3)c2)n1 [Compound 435]
- Rice plant response rating (rice): 0
- Blackgrass plant response rating (blackgrass; [4]): 30
- Blackgrass plant response rating (blackgrass; [5]): 20
- Velvetleaf plant response rating (velvetleaf; [4]): 20
- Velvetleaf plant response rating (velvetleaf; [5]): 10
- Foxtail, Giant plant response rating (giant foxtail; [4]): 30
- Foxtail, Giant plant response rating (giant foxtail; [5]): 20
- Pigweed plant response rating (pigweed; [4]): 60
- Pigweed plant response rating (pigweed; [5]): 40
- Lambsquarters plant response rating (lambsquarters; [4]): 60
- Lambsquarters plant response rating (lambsquarters; [5]): 50
- Oat, Wild plant response rating (wild oat; [4]): 60
- Oat, Wild plant response rating (wild oat; [5]): 50
- Cocklebur plant response rating (cocklebur; [4]): 20
- Cocklebur plant response rating (cocklebur; [5]): 20
- Barnyardgrass plant response rating (barnyardgrass [1]): 0
- Barnyardgrass plant response rating (barnyardgrass [2]; 125 g ai/ha): 10
- Barnyardgrass plant response rating (barnyardgrass [2]; 500 g ai/ha): 10
- Wheat plant response rating (wheat; [6]): 10
- Wheat plant response rating (wheat; [4]): 60
- Wheat plant response rating (wheat; [5]): 20
- Morningglory plant response rating (morningglory; [4]): 90
- Morningglory plant response rating (morningglory; [5]): 70
- Corn plant response rating (corn; [4]): 30
- Corn plant response rating (corn; [5]): 20
- Crabgrass, Large plant response rating (large crabgrass; [4]): 30
- Crabgrass, Large plant response rating (large crabgrass; [5]): 10
- Surinam Grass plant response rating (Surinam grass; [4]): 30
- Surinam Grass plant response rating (Surinam grass; [5]): 20
- Ducksalad plant response rating (ducksalad): 0
- Sedge, Umbrella plant response rating [3]: 0

Compound: C=CCNC(=O)c1ccc(F)c(N(C(C)=O)C(=O)c2cc(C(C)(C)C)nn2CC)c1 [Compound 443]
- Rice plant response rating (rice): 70
- Blackgrass plant response rating (blackgrass; [4]): 40
- Blackgrass plant response rating (blackgrass; [5]): 30
- Velvetleaf plant response rating (velvetleaf; [4]): 50
- Velvetleaf plant response rating (velvetleaf; [5]): 50
- Foxtail, Giant plant response rating (giant foxtail; [4]): 40
- Foxtail, Giant plant response rating (giant foxtail; [5]): 30
- Pigweed plant response rating (pigweed; [4]): 80
- Pigweed plant response rating (pigweed; [5]): 60
- Lambsquarters plant response rating (lambsquarters; [4]): 80
- Lambsquarters plant response rating (lambsquarters; [5]): 70
- Oat, Wild plant response rating (wild oat; [4]): 60
- Oat, Wild plant response rating (wild oat; [5]): 40
- Cocklebur plant response rating (cocklebur; [4]): 80
- Cocklebur plant response rating (cocklebur; [5]): 50
- Barnyardgrass plant response rating (barnyardgrass [1]): 80
- Barnyardgrass plant response rating (barnyardgrass [2]; 125 g ai/ha): 20
- Barnyardgrass plant response rating (barnyardgrass [2]; 500 g ai/ha): 30
- Wheat plant response rating (wheat; [6]): 100
- Wheat plant response rating (wheat; [4]): 50
- Wheat plant response rating (wheat; [5]): 40
- Morningglory plant response rating (morningglory; [4]): 60
- Morningglory plant response rating (morningglory; [5]): 50
- Corn plant response rating (corn; [4]): 20
- Corn plant response rating (corn; [5]): 20
- Crabgrass, Large plant response rating (large crabgrass; [4]): 30
- Crabgrass, Large plant response rating (large crabgrass; [5]): 20
- Surinam Grass plant response rating (Surinam grass; [4]): 20
- Surinam Grass plant response rating (Surinam grass; [5]): 20
- Ducksalad plant response rating (ducksalad): 70
- Sedge, Umbrella plant response rating [3]: 80
